The data set is described as follows: log P by HPLC. It is filed as physicochemical.
Where [1] appears, read: HPLC, gradient method, acetonitrile/0.1% aqueous phosphoric acid, EEC directive 79/831 Annex V. A8.
The mark [2] stands for this setting: EEC directive 79/831 Annex V. A8 by HPLC (gradient method, acetonitrile/0.1% aqueous phosphoric acid).

`Cc1nc2nc(Cl)c(-c3c(F)cc(F)cc3F)c(N3CCSC3)n2n1` [compound 112]: the log partition coefficient (logP) (commonly a log measure of how a compound divides between an organic and an aqueous phase) under setting [1] was 2.84.
As for `CCOC(=O)CN(C)c1c(-c2ccc(F)cc2F)c(Cl)nc2nc(C)nn12` [compound 410], the logP under setting [2] worked out at 2.8.
In the case of `Fc1cccc(Cl)c1-c1c(Cl)nc2nc(C3CC3)nn2c1N1CCCCC1` [compound 708], under setting [1], the logP is recorded as 4.19.
With `CCN(CC)c1c(-c2ccccc2Cl)c(Cl)nc2nc(C)nn12` [compound 242], the log partition coefficient (logP) under setting [1] was 3.24.
Same read-out and setting: with `Cc1nc2nc(Cl)c(-c3ccccc3Cl)c(N3CCC(C(F)(F)F)CC3)n2n1` [compound 232] the figure was 3.63; with `CC(C)CN(N)c1c(-c2c(F)cc(F)cc2F)c(Cl)nc2nc(C3CC3)nn12` [compound 773], 3.65.
The molecule `CC1=CCCN(c2c(-c3ccc(F)cc3F)c(Cl)nc3nc(C)nn23)C1` [compound 291] had a logP under setting [2] of 3.49.
In turn, `C=CCN(CC)c1c(-c2c(F)cccc2F)c(Cl)nc2nc(C)nn12` [compound 568] registered a lipophilicity (logP) under setting [1] of 3.3.
Under setting [2], `Cc1nc2nc(Cl)c(-c3c(F)cccc3F)c(NOCc3c(Cl)cccc3Cl)n2n1` [compound 435] came in with a logP of 3.31.
The same measure, in the same setting: with `Cc1nc2nc(Cl)c(-c3ccc(F)cc3F)c(NC(C)C(F)(F)F)n2n1` (single isomer, unassigned) [compound 359] the figure was 2.95.
Under setting [1], `Cc1nc2nc(Cl)c(-c3ccc(F)cc3Cl)c(NCC(F)(F)F)n2n1` [compound 766] came in with a logP of 2.8.
On to `COC(=O)C1CCCCN1c1c(-c2ccc(F)cc2F)c(Cl)nc2nc(C)nn12` (centres unmarked) [compound 453], for which, under setting [2], the logP is given as 3.36.
`Cc1nc2nc(Cl)c(-c3ccccc3F)c(N(C)C)n2n1` [compound 381]: the logP under setting [2] is recorded as 2.34.
Under setting [1], `COC(=O)CNc1c(-c2c(F)cc(F)cc2F)c(Cl)nc2nc(C)nn12` [compound 125] registered a logP of 2.13.
Same read-out and setting: with `CCCNc1c(-c2c(F)cc(F)cc2F)c(Cl)nc2nc(CC)nn12` [compound 74] the figure was 3.14.
Under setting [2], `Cc1nc2nc(Cl)c(-c3c(F)cccc3F)c(N3CCCCC3C)n2n1` (centres unmarked) [compound 311] registered a logP of 3.57.
Still for that read-out and setting: with `Cc1nc2nc(Cl)c(-c3c(F)cccc3F)c(N3CCC(N)C3)n2n1` (centres unmarked) [compound 441] the figure was 1.19.
`C#CCN(C)c1c(-c2ccc(F)cc2F)c(Cl)nc2nc(C3CC3)nn12` [compound 662]: the log partition coefficient (logP) under setting [1] was 3.21.
Take `Fc1cccc(F)c1-c1c(Cl)nc2nc(C3CC3)nn2c1NC1CCCC1` [compound 740]: the logP under setting [1] came to 3.66.
`Cc1nc2nc(Cl)c(-c3c(F)cccc3F)c(NOCc3cc(Cl)cc(Cl)c3)n2n1` [compound 428]: the logP under setting [2] came to 3.75.
Under setting [1], `CCN(Cc1ccco1)c1c(-c2c(F)cc(F)cc2F)c(Cl)nc2nc(C)nn12` [compound 158] showed a logP of 3.55.
In turn, `Cc1nc2nc(Cl)c(-c3c(F)cccc3F)c(N3CCC(O)CC3)n2n1` [compound 307] showed a logP under setting [2] of 1.83.
As for `CC(C)C(C)Nc1c(-c2c(F)cccc2Cl)c(Cl)nc2nc(C3CC3)nn12` (centres unmarked) [compound 583], the logP under setting [1] was 4.12.
Under setting [2], `CC(C)CN(C)c1c(-c2c(F)cc(F)cc2F)c(Cl)nc2nc(C3CC3)nn12` [compound 467] yielded a logP of 4.36.
Still for that read-out and setting: with `Cc1nc2nc(Cl)c(-c3ccc(F)cc3F)c(N3CCOCC3)n2n1` [compound 296] the figure was 2.3.
Molecule `Cc1nc2nc(Cl)c(-c3c(F)cc(F)cc3F)c(N3CCCCN3)n2n1` [compound 692] gave a logP under setting [1] of 2.83.
With `Fc1ccc(-c2c(Cl)nc3nc(C4CC4)nn3c2N2CCCCC2)c(Cl)c1` [compound 635], under setting [1], the logP is 4.37.
For `N#CCNc1c(-c2ccc(F)cc2F)c(Cl)nc2nc(C3CC3)nn12` [compound 713], the logP under setting [1] stood at 2.42.
On the same count and under the same terms, with `C=C(C)CN(C)c1c(-c2c(F)cccc2F)c(Cl)nc2nc(C3CC3)nn12` [compound 677] the figure was 3.98.
Consider `Cc1nc2nc(Cl)c(-c3c(F)cc(F)cc3F)c(NC(C)C(C)C)n2n1` (centres unmarked) [compound 523], for which the logP under setting [2] turned out to be 3.38.
Molecule `Fc1cccc(Cl)c1-c1c(Cl)nc2nc(C3CC3)nn2c1N1CCC(F)CC1` [compound 707] showed a logP under setting [1] of 3.63.
Still for that read-out and setting: with `C=C(C)CN(CC)c1c(-c2c(F)cc(F)cc2F)c(Cl)nc2nc(CC)nn12` [compound 15] the figure was 4.34; with `CCN(CC)c1c(-c2c(F)cc(F)cc2F)c(Cl)nc2nc(C(F)(F)F)nn12` [compound 33], 4.25.
Regarding `Fc1cc(F)c(-c2c(Cl)nc3nc(C4CC4)nn3c2N2CCCCC2)c(F)c1` [compound 474], the logP under setting [2] turned out to be 4.22.
The molecule `Cc1nc2nc(Cl)c(-c3c(F)cc(F)cc3F)c(N(C)CC3OCCO3)n2n1` [compound 151] gave a logP under setting [1] of 2.67.
On the same count and under the same terms, the figure for `CCOC(=O)CN(c1c(-c2ccc(F)cc2F)c(Cl)nc2nc(C(F)(F)F)nn12)C1CC1` [compound 554] is 4.28.
Molecule `CNc1c(-c2ccccc2F)c(Cl)nc2nc(C)nn12` [compound 389] showed a logP under setting [2] of 2.02.
On to `Fc1cccc(F)c1-c1c(Cl)nc2nc(C3CC3)nn2c1N1CCCCC1` [compound 682], for which the logP under setting [1] stood at 3.9.
Still for that read-out and setting: the figure for `CC(C)C(C)Nc1c(-c2c(F)cccc2F)c(Cl)nc2nc(C3CC3)nn12` (centres unmarked) [compound 751] is 3.82.
For the molecule `Cc1nc2nc(Cl)c(-c3ccccc3F)c(NOCc3cc(Cl)cc(Cl)c3)n2n1` [compound 364], the logP under setting [2] came out at 3.76.
The same measure, in the same setting: the figure for `Cc1nc2nc(Cl)c(-c3ccccc3F)c(NC(C)C3CCCCC3)n2n1` (centres unmarked) [compound 396] is 4.16.
The molecule `Cc1nc2nc(Cl)c(-c3c(F)cccc3F)c(NC3CCCC3)n2n1` [compound 173] gave a logP under setting [1] of 2.97.
With `CCNc1c(-c2ccccc2F)c(Cl)nc2nc(C)nn12` [compound 383], the logP under setting [2] was 2.3.
In turn, `CC(C)C(C)Nc1c(-c2ccc(F)cc2Cl)c(Cl)nc2nc(C3CC3)nn12` (racemic) [compound 587] came in with a logP under setting [1] of 4.25.
With `CC(C)C(C)Nc1c(-c2ccc(F)cc2Cl)c(Cl)nc2nc(C3CC3)nn12` (racemic) [compound 586], under setting [1], the logP came out at 4.25.
Still for that read-out and setting: with `Fc1ccc(-c2c(Cl)nc3nc(C(F)(F)F)nn3c2N2CCSCC2)c(F)c1` [compound 810] the figure was 4.04.
In the case of `Cc1nc2nc(Cl)c(-c3ccccc3F)c(NC3CCC(C(F)(F)F)CC3)n2n1` (centres unmarked) [compound 400], the logP under setting [2] is recorded as 3.48.
In turn, `CC(C)(C)CNc1c(-c2ccc(F)cc2F)c(Cl)nc2nc(C3CC3)nn12` [compound 646] had a logP under setting [1] of 4.
Same read-out and setting: with `CC(Nc1c(-c2ccc(F)cc2Cl)c(Cl)nc2nc(C3CC3)nn12)C(F)(F)F` (racemic) [compound 747] the figure was 3.73.
`Cc1nc2nc(Cl)c(-c3ccccc3F)c(N3CCC(C(F)(F)F)CC3)n2n1` [compound 392] displayed a logP under setting [2] of 3.37.
Take `C=C(C)CN(C)c1c(-c2ccc(F)cc2F)c(Cl)nc2nc(C3CC3)nn12` [compound 670]: the logP under setting [1] was determined as 4.05.
The same measure, in the same setting: the figure for `CCCNc1c(-c2c(F)cc(F)cc2F)c(Cl)nc2nc(C)nn12` [compound 61] is 2.75.
Turning to `CC1CCN(c2c(-c3ccc(F)cc3F)c(Cl)nc3nc(C4CC4)nn23)CC1` [compound 613], the logP under setting [1] is given as 4.41.
On the same count and under the same terms, the figure for `Cc1nc2nc(Cl)c(-c3ccc(F)cc3Cl)c(NC(C)C(C)C)n2n1` (centres unmarked) [compound 588] is 3.6.
With `Cc1nc2nc(Cl)c(-c3c(F)cc(F)cc3F)c(N(C)CC3CC3(Cl)Cl)n2n1` (centres unmarked) [compound 502], the logP under setting [2] was 3.68.
For `Fc1cc(F)c(-c2c(Cl)nc3nc(C4CC4)nn3c2N2CC=CCO2)c(F)c1` [compound 786], under setting [1], the logP is listed as 3.56.
With `CCC(C)ONc1c(-c2ccccc2F)c(Cl)nc2nc(C)nn12` (centres unmarked) [compound 370], under setting [2], the logP was found to be 2.87.
`Cc1nc2nc(Cl)c(-c3ccc(F)c(Cl)c3)c(N(N)CC(C)C)n2n1` [compound 131]: the logP under setting [1] is on record as 3.31.
Under setting [1], `CCCCNc1c(-c2ccc(F)cc2F)c(Cl)nc2nc(C(F)(F)F)nn12` [compound 526] showed a logP of 4.07.
As for `Cc1nc2nc(Cl)c(-c3ccccc3F)c(N3CC(C)OC(C)C3)n2n1` (centres unmarked) [compound 382], the logP under setting [2] was 2.8.
Take `C=CCN(CC)c1c(-c2ccccc2Cl)c(Cl)nc2nc(C)nn12` [compound 224]: the log partition coefficient (logP) under setting [1] was 3.5.
Regarding `Fc1cc(F)c(-c2c(Cl)nc3nc(C(F)(F)F)nn3c2Cl)c(F)c1` [Example 819, 5,7-dichloro-2-(trifluoromethyl)-6-(2,4,6-trifluorophenyl)[1,2,4]triazolo[1,5-a]pyrimidine], the chromatographic logP (commonly a lipophilicity value derived from retention on a column) (HPLC) was determined as 3.71.
Turning to `Cc1nc2nc(Cl)c(-c3ccc(F)cc3F)c(N3CCC(O)CC3)n2n1` [compound 282], the logP under setting [2] was 1.9.
Consider `CCN(CCOC)c1c(-c2ccc(F)cc2F)c(Cl)nc2nc(C)nn12` [compound 128], for which the logP under setting [1] came out at 2.84.
`C=C(C)CNc1c(-c2ccccc2Cl)c(Cl)nc2nc(C3CC3)nn12` [compound 495] registered a logP under setting [2] of 3.41.
The same measure, in the same setting: with `Clc1ccccc1-c1c(Cl)nc2nc(C3CC3)nn2c1N1CCCCC1` [compound 493] the figure was 4.27.
On to `CCNc1c(-c2c(F)cc(F)cc2F)c(Cl)nc2nc(C)nn12` [compound 87], for which the logP under setting [1] stood at 2.44.
Consider `Fc1ccc(-c2c(Cl)nc3nc(C(F)(F)F)nn3c2NC2CCCC2)c(F)c1` [compound 530], for which the logP under setting [1] came to 4.21.
Molecule `Fc1cccc(F)c1-c1c(Cl)nc2nc(C3CC3)nn2c1N1CCOCC1` [compound 683] displayed a logP under setting [1] of 2.78.
`C=C(C)CN(C)c1c(-c2c(F)cc(F)cc2F)c(Cl)nc2nc(C3CC3)nn12` [compound 469] gave a logP under setting [2] of 4.27.
Molecule `COC(=O)CN(C)c1c(-c2c(F)cccc2F)c(Cl)nc2nc(C)nn12` [compound 565] registered a logP under setting [1] of 2.32.
Still for that read-out and setting: the figure for `C#CCN(C)c1c(-c2c(F)cc(F)cc2F)c(Cl)nc2nc(C)nn12` [compound 149] is 2.77; for `Fc1ccc(-c2c(Cl)nc3nc(C(F)(F)F)nn3c2NCCC(F)(F)F)c(F)c1` [compound 529] it is 3.7.
For the molecule `Fc1ccc(-c2c(Cl)nc3nc(C4CC4)nn3c2N2CCCCC2)c(F)c1` [compound 517], under setting [2], the logP came out at 4.03.

For the origin of these results see US7186831B2, “5-halo-2-alkyl[1,2,4]triazolo[1,5-a]pyrimidin-7-amines” (priority 2001, dated 2007).
